Biological target: T1, Mushroom Tyrosinase (TYR) (Agaricus bisporus, UniProt C7FF04)
T1 construct: gene PPO3
Experiment: colorimetric L-Dopa oxidation assay, single-concentration inhibition at […]; also retrieved by ligand fishing on paper-immobilized tyrosinase
Assay type: biochemical

T1 sequence (C7FF04 2-392): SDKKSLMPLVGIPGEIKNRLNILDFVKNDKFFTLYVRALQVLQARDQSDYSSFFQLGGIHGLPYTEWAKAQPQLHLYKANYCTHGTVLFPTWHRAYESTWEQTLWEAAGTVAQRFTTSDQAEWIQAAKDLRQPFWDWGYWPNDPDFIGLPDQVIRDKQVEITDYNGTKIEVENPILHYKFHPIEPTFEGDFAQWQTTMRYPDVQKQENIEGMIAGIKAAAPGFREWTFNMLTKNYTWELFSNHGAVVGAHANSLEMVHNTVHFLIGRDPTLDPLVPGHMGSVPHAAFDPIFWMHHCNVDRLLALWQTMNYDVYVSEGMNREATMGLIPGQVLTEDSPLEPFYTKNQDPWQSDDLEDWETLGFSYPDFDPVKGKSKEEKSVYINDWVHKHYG

- inhibition at 25 µM: 29.4%
Structure (SMILES): O=C(/C=C/c1ccc(O)c(O)c1)c1ccc(O[C@@H]2O[C@H](CO)[C@@H](O)[C@H](O)[C@H]2O)c(O)c1O [compound 2, marein]

— article PMC11397727, “Fast Screening of Tyrosinase Inhibitors in Coreopsis tinctoria Nutt. by Ligand Fishing Based on Paper-Immobilized Tyrosinase” (Molecules, 2024)
